Columns and labels:
[1] = target: Integrin alpha-V/beta-3 (Homo sapiens, UniProt P05106+P06756); assay: Displacement of a non-peptide radioligand from human recombinant alphaV-beta3 integrin; type: protein-complex assay
[2] = species: Mus musculus; assay: The ability of compound to inhibit the transformation of osteoblast-like cells originally derived from mouse calvaria, into osteoclasts by OCFORM assay; type: functional, cell-based

Sequence of Integrin alpha-V/beta-3 (P05106 27-788 limits assumed): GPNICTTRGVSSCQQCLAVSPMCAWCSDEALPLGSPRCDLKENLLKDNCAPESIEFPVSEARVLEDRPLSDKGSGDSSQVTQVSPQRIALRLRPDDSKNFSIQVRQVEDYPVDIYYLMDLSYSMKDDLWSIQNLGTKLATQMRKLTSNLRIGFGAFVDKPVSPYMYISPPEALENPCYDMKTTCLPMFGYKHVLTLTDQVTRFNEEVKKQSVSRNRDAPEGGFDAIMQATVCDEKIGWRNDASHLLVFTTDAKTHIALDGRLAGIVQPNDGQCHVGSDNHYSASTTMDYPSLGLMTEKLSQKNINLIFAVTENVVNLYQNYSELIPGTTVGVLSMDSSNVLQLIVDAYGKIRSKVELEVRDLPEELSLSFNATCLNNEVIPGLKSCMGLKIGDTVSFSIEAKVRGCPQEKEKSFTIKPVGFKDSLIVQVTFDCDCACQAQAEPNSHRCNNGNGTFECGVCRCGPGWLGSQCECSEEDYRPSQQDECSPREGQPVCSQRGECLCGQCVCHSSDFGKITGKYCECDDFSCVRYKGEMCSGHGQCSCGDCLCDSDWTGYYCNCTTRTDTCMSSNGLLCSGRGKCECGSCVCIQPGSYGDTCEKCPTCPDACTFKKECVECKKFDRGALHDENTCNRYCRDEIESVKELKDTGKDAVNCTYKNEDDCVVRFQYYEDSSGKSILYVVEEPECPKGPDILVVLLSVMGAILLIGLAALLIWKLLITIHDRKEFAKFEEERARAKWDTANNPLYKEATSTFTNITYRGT
Sequence of Integrin alpha-V/beta-3 (P06756 31-889 limits assumed): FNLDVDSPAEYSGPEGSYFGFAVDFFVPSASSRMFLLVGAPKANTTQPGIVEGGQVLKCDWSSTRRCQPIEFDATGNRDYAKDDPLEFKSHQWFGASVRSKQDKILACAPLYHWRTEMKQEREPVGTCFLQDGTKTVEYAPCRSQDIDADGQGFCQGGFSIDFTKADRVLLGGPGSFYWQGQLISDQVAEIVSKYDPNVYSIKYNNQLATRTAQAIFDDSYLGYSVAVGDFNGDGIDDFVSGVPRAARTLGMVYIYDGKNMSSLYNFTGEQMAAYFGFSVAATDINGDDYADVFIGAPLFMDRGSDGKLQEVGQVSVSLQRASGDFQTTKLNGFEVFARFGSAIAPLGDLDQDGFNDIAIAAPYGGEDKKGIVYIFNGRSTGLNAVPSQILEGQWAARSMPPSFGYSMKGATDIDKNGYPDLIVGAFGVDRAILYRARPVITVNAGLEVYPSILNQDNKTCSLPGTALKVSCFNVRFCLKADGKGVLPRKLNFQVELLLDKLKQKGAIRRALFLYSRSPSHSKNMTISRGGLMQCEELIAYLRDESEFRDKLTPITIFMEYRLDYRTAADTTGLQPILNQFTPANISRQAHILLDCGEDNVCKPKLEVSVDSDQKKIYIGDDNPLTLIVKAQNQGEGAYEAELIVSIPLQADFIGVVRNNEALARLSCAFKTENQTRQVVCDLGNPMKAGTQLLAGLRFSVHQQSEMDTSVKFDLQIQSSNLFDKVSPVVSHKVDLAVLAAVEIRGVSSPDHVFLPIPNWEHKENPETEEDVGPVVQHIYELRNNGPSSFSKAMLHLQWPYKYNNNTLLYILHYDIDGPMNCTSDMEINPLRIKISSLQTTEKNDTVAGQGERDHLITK
Sequence of Integrin alpha-V/beta-3 (P06756 891-1048 limits assumed): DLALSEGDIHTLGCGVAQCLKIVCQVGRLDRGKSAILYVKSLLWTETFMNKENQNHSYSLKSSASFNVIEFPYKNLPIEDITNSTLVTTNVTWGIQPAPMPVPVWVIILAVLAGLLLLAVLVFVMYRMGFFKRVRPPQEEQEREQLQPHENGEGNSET

SMILES | IC50 [1] | IC50 [2]
O=C(O)C[C@H](NC(=O)CN1CCN(CCc2ccc3c(n2)NCCC3)C1=O)c1cccnc1 | 12 nM | > 1000 nM
C#C[C@H](CC(=O)O)NC(=O)CNC(=O)CCCc1ccc2c(n1)NCCC2 | 8.8 nM | 
O=C(O)C[C@H](NC(=O)CNC(=O)CCCc1ccc2c(n1)NCCC2)c1cccnc1 | 1.3 nM | 
O=C(O)CCNC(=O)CNC(=O)CCCc1ccc2c(n1)NCCC2 | 111 nM | 
C#C[C@H](CC(=O)O)NC(=O)CN1CC[C@H](CCc2ccc3c(n2)NCCC3)C1=O | 2.9 nM | 150 nM
N=C(N)NCCC[C@H](N)C(=O)NCC(=O)N[C@@H](CC(=O)O)C(=O)O | > 10000 nM | 
N=C(N)NCCCCC(=O)NCC(=O)NCCC(=O)O | > 10000 nM | 
O=C(O)C[C@H](NC(=O)CN1CC[C@H](CCc2ccc3c(n2)NCCC3)C1=O)c1cccnc1 |  | 62 nM
O=C(O)C[C@H](NC(=O)CN1CC[C@@H](CCc2ccc3c(n2)NCCC3)C1=O)c1cccnc1 | 0.94 nM | 79 nM
O=C(O)C[C@H](NC(=O)CN1CCCC(CCc2ccc3c(n2)NCCC3)C1=O)c1cccnc1 (some centres undefined) | 1.2 nM | 480 nM
